How the values were obtained:
[1] = Rate of release of chlorhexidine/fatty acid salts from coated polyurethane tubes into DI water; format: physicochemical; details: for Cumulative release of the chlorhexidine/fatty acid salts from the coated polyurethane tubes: 1 cm coated tube in DI water, 37° C.; for Time by which approximately all of the salt was released from the coated sample: coated polyurethane tube in DI water
Method: A solution of each respective chlorhexidine/fatty acid salt was prepared and used to infuse a sample of elastomeric material. To perform the test, individual samples, 8 cm pieces of polyurethane tube containing a colorant, were surface dip coated in respective solutions of the chlorhexidine/fatty acid salts. The solutions were prepared as follows: 8.6 g of Tecoflex (Noveon, Cleveland, Ohio) was dissolved in 174 g of Tetrahydrofuran and methanol. 5.88 g of chlorhexidine acetate, chlorhexidine laurate, chlorhexidine myristate, chlorhexidine palmitate and chlorhexidine stearate were individually dissolved into the polymer-solvent mixture. The samples were immersed into the solvent-polymer-salt mixture and then dried at room temperature, evaporating the solvent. A polymeric coating was produced on the surface of the tubes. The amounts of chlorhexidine/fatty acid salt adhered per cm of the tube was measured (Table 2) by exhaustively extracting the salt and measuring UV absorbance at 253 nm relative to controls: For each of the samples, the rate of release of chlorhexidine/fatty acid salts into an aqueous solution was determined. To perform the rate of release test, 1 cm from each of the coated polyurethane tubes, were submerged in DeIonized (DI) water and incubated at 37° C. for a period of 28 days to determine the rate of release of the salts from the respective 1 cm samples of coated polyurethane tubing. The water was collected and replaced with fresh water after approximately 2 hours. The water was again collected and replaced with fresh water after the first day and every seven days thereafter. The amount of chlorhexidine/fatty acid salt in the collected water was measured with an Agilent 8453 UV-Vis Diode Array Detector with a manual setup using a cuvette w/path length of 1 cm. Chlorhexidine absorbance was read at 253 nm and concentration was calculated via a calibration curve developed using standards of 1, 5, 10, 20, 30, 35, and 40 μg/mL chlorhexidine acetate in DI Water. The percentage of chlorhexidine/fatty acid salt released from the sample into an aqueous media (percent release) was calculated according to the following equation: Percent release=(cumulative release at that time period/initial content)*100.

[2] = system: Pseudomonas aeruginosa ATCC 27853; experiment: Basic broth adherence assay on coated polyurethane tubes; format: cell-based; details: for Inhibition of adherence / antimicrobial effect against Pseudomonas aeruginosa (in words): coated polyurethane tubes compared to uncoated control
Method: The antimicrobial effectiveness of the coated samples was subjected to different durations of DI water extraction by basic broth adherence assay. For each chlorhexidine/fatty acid salt tested, 3 samples of coated tubing were prepared and assayed. To prepare the inoculum, a culture of Pseudomonas aeruginosa ATCC 27853 was used to challenge the coated polyurethane tubes and controls. The negative control used was a length of uncoated polyurethane tube. The challenge microorganism suspension was prepared as follows: approximately three colonies were removed from a secondary working culture plated on Trypticase Soy Agar (TSA) (BD-Falcon) with 5% sheep's blood and added to 10 ml of Trypticase Soy Broth (TSB). The vial was vortexed for approximately 30 seconds and incubated for 4 hours at 37° C. at 100 rpm. Following incubation, the vial was removed and vortexed. The optical density of the organism suspension was read. The inoculum was then diluted in TSB to a concentration of 5×10^4 colony forming units per milliliter (CFU/mL). This concentration was confirmed by the Miles and Misra drop count method.
The basic broth adherence assay was performed in a 96 well micro titer plate. To each well of the micro titer plate containing either a test article or a control, 900 μl of TSB was added. To this, 100 μl of the adjusted inoculum was added (Note: Due to the 1/10 dilution per well, the starting inoculum concentration of each organism was […] for Pseudomonas aeruginosa). The micro titer plates were then sealed via parafilm® around the edges and wrapped in foil to avoid evaporation of liquid and light contact with the samples. The plates were then placed inside a shaker incubator set at 37° C. and 100 rpm for 24 hours. Incubation at 37° C. then continued until the elapse of 7 days, 14 days, and 21 days, respectively, for each of the 3 samples prepared for each chlorhexidine/fatty acid salt.
At the completion of the respective incubation periods, the samples were rinsed, sonicated, the sonicate was plated and adherence was evaluated. More particularly, following incubation, all samples and controls were dip-rinsed twice in phosphate buffered saline (PBS) to remove the surrounding media. After rinsing, test articles were sonicated in micro titer plate wells containing 1 mL of Dey-Engley (DE) neutralizing broth (Difco). The sonication liquid was then serially diluted, and plated onto the surface of DE neutralizing agar. Plates were incubated at 37° C. for 24 to 48 hours and colonies were counted. Recovery counts were recorded as CFU/mL.

[3] = system: Candida albicans ATCC 10231; experiment: Zone of inhibition assay with impregnated polyurethane foam discs; format: cell-based; details: for Zone of inhibition compared with the other salts (in words): impregnated polyurethane foam, after several daily transfers / over the 9 day assay
Method: To evaluate antimicrobial properties of polyurethane foam samples infused with the various chlorhexidine/fatty acid salts, a zone of inhibition assay was performed. In this assay, 1.4% (w/v) of chlorhexidine acetate, chlorhexidine caprate, chlorhexidine laurate, chlorhexidine myristate, chlorhexidine palmitate and chlorhexidine stearate solutions in methanol were prepared. A supply of 8 mm discs were punched out of a sheet of polyurethane foam (Rynel medical grade polyurethane foam) with biopsy punches (Miltex Kai). Several discs were placed in each of six 50 ml centrifuge tubes. Approximately 5 ml of each of the different methanol/chlorhexidine/fatty acid salt solutions was added to each respective tube. The discs were centrifuged for 5 minutes to remove any air bubbles and soaked for 1 hr to infuse the foam discs with the respective chlorhexidine/fatty acid salt. Infused discs were transferred to clean centrifuge tubes and vacuum dried at 25° C. for 24 hrs to remove any residual solvents. Initial concentrations of salts, impregnated into the punches, were determined by dissolving the impregnated foams and by high pressure liquid chromatography (HPLC) analysis using an Agilent Eclipse XDB-CN 3u 4.6×150 mm column with initial mobile phase=65% DI water/0.2% trifluoroacetic acid (TFA): 35% Acetonitrile/0.2% TFA. Chlorhexidine absorbance was read at 253 nm and concentration was calculated via a chlorhexidine calibration curve. […] To perform the zone of inhibition assay on the impregnated polyurethane foam discs, agar plates were prepared by mixing 11 g Mueller-Hinton cation-adjusted broth and 1.5 g agarose in 500 ml DI water. The agar was autoclaved for 15 minutes at 121° C., 15 psi. 10 ml of the still hot, liquid agar was pipetted onto petri dishes. The challenge organism, Candida albicans ATCC 10231, was cultivated in Trypticase soy broth, standard microbiological growth medium (TSB). Sterile cotton swabs were dipped into the undiluted culture and the plated agar was fully inoculated with swabs. The 8 mm polyurethane foam discs were transferred daily to a freshly inoculated agar for 9 days. The zone of inhibition (ZOI) was measured using calipers. Actual ZOI was measured by subtracting the diameter of the foam (when wet) from the zone measured and dividing by 2. The results are presented in Table 6, with a graphical representation of the ZOI in FIG. 2;

[4] = Incorporation of chlorhexidine salts into silicone tubing (swelling impregnation, extraction, HPLC); format: physicochemical; details: for Salt content in silicone elastomeric medical article: one day, equivalent mass of chlorhexidine base extracted;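 for Salt content in silicone elastomeric medical article: columns differ by chlorhexidine salt concentration in the impregnation solution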
Method: Chlorhexidine diacetate, Chlorhexidine dodecanoate and chlorhexidine palmitate were loaded into silicone tubing by first dissolving the chlorhexidine salt in a 90% THF+10% Methanol solution.
Impregnated chlorhexidine was extracted from the tubing by immersing in an excess of THF to fully swell it and then adding an equal volume of water to extract the chlorhexidine salt. The quantity of chlorhexidine was determined by previously enumerated HPLC method. It is reported below for different concentration impregnation solutions in terms of the equivalent mass of chlorhexidine base extracted: […]

[5] = Day 1, daily transfer to fresh agar
[6] = Day 2, daily transfer to fresh agar
[7] = Day 3, daily transfer to fresh agar
[8] = Day 4, daily transfer to fresh agar
[9] = Day 7, daily transfer to fresh agar
[10] = Day 8, daily transfer to fresh agar
[11] = Day 9, daily transfer to fresh agar
[12] = 1% impregnation solution in 90% THF+10% Methanol
[13] = 3% impregnation solution in 90% THF+10% Methanol
[14] = 6% impregnation solution in 90% THF+10% Methanol
[15] = 10% impregnation solution in 90% THF+10% Methanol

Row | SMILES | Cumulative release of the chlorhexidine/fatty acid salts from the coated polyurethane tubes ([1]; Day 1) | Cumulative release of the chlorhexidine/fatty acid salts from the coated polyurethane tubes ([1]; Day 7) | Cumulative release of the chlorhexidine/fatty acid salts from the coated polyurethane tubes ([1]; Day 14) | Cumulative release of the chlorhexidine/fatty acid salts from the coated polyurethane tubes ([1]; Day 21) | Cumulative release of the chlorhexidine/fatty acid salts from the coated polyurethane tubes ([1]; Day 28) | Time by which approximately all of the salt was released from the coated sample [1] | Log10 reduction of adhered Pseudomonas aeruginosa onto the surface of coated polyurethane tubes ([2]; 7 days) | Log10 reduction of adhered Pseudomonas aeruginosa onto the surface of coated polyurethane tubes ([2]; 14 days) | Log10 reduction of adhered Pseudomonas aeruginosa onto the surface of coated polyurethane tubes ([2]; 21 days) | ZOI produced by impregnated polyurethane foam punches against Candida albicans [3, 5] | ZOI produced by impregnated polyurethane foam punches against Candida albicans [3, 6] | ZOI produced by impregnated polyurethane foam punches against Candida albicans [3, 7] | ZOI produced by impregnated polyurethane foam punches against Candida albicans [3, 8] | ZOI produced by impregnated polyurethane foam punches against Candida albicans [3, 9] | ZOI produced by impregnated polyurethane foam punches against Candida albicans [3, 10] | ZOI produced by impregnated polyurethane foam punches against Candida albicans [3, 11] | Zone of inhibition compared with the other salts (in words) [3] | Salt content in silicone elastomeric medical article [4, 12] | Salt content in silicone elastomeric medical article [4, 13] | Salt content in silicone elastomeric medical article [4, 14] | further results
1 | CCCCCCCCCCCC(=O)O.NC(=NCCCCCCN=C(N)N=C(N)Nc1ccc(Cl)cc1)N=C(N)Nc1ccc(Cl)cc1 [Chlorhexidine Laurate, chlorhexidine dilaurate] | 62 g | 145 g | 165 g | 167 g | 167 g | ≤ 14 days | 7 | 0 | 0 | 27 mm | 31 mm | 32 mm | 27 mm | 23 mm | 31 mm | 29 mm | relatively largest ZOI | 249 µg/cm | 408 µg/cm | 526 µg/cm | Inhibition of adherence / antimicrobial effect against Pseudomonas aeruginosa (in words) [2]: inhibition was not apparent at 14 days or thereafter; Salt content in silicone elastomeric medical article [4, 15]: 614 µg/cm; Absorption into silicone tubing compared with the other salts (in words) ([4]; silicone tubing, 90% THF+10% Methanol): absorbed at much higher concentrations than the other salts
2 | CC(=O)O.CC(=O)O.NC(=N\CCCCCC/N=C(N)/N=C(\N)Nc1ccc(Cl)cc1)/N=C(\N)Nc1ccc(Cl)cc1 [Chlorhexidine Acetate, chlorhexidine diacetate, reference compound] | 155 g | 222 g | 224 g | 224 g | 224 g | ≤ 7 days | 5 | 0 | 0 | 12 mm | 11 mm | 14 mm | 8 mm | 8 mm | 12 mm | 12 mm | zones of inhibition that were smaller | 262 µg/cm | 395 µg/cm | 374 µg/cm | Percent release of the initial salt concentration from the coated sample ([1]; within 1 day (FIG. 1)): approximately 70%; Inhibition of adherence / antimicrobial effect against Pseudomonas aeruginosa (in words) ([2]; listed as chlorhexidine acetate): inhibition was not apparent at 14 days or thereafter; Inhibition of adherence / antimicrobial effect against Pseudomonas aeruginosa (in words) ([2]; listed as chlorhexidine diacetate): not able to provide an antimicrobial effect against Pseudomonas aeruginosa after 7 days; Salt content in silicone elastomeric medical article [4, 15]: 439 µg/cm

Reference: patent US20100069854A1, “Elastomeric Devices Containing Chlorhexidine/Fatty Acid Salts Made From Fatty Acids of 12 to 18 Carbons” (priority 2008, published 2010)
